Reference: ChEMBL document CHEMBL5291721, “A preclinical secondary pharmacology resource illuminates target-adverse drug reaction associations of marketed drugs” (Nat Commun, 2023)

Experiments:
[1] = biological target: T1, Alpha-1A adrenergic receptor (Homo sapiens, UniProt P35348); assay type: functional, cell-based
T1 sequence (P35348 whole entry): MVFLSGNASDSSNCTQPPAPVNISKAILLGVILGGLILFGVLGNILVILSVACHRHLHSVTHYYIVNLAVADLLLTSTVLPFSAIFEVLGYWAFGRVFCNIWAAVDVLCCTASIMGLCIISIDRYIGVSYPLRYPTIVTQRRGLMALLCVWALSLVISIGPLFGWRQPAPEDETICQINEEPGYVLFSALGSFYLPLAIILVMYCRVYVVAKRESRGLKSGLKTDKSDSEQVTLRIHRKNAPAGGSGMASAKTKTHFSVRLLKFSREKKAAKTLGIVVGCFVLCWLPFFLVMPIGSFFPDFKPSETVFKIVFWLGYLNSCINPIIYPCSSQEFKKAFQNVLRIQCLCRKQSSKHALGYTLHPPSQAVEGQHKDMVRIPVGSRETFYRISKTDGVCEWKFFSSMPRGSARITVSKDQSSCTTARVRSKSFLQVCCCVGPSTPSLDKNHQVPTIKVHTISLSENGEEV

[2] = biological target: T2, Gastrin/cholecystokinin type B receptor (Homo sapiens, UniProt P32239)
T2 sequence (P32239 whole entry): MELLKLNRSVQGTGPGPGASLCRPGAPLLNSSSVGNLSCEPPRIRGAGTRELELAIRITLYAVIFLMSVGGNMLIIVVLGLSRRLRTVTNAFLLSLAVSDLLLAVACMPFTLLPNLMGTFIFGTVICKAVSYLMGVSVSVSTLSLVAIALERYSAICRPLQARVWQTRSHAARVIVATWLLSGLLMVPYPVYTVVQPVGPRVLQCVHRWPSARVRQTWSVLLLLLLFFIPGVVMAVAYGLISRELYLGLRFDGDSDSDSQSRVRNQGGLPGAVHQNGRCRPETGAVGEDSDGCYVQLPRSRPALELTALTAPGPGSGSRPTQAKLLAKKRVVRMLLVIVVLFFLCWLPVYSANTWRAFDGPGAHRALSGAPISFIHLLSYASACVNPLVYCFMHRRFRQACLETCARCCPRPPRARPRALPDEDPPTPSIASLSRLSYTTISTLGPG

[3] = biological target: Muscarinic acetylcholine receptor M3 (Homo sapiens, UniProt P20309)
[4] = biological target: Histamine H2 receptor (Homo sapiens, UniProt P25021); assay type: functional, cell-based
[5] = biological target: T3, Thromboxane A2 receptor (Homo sapiens, UniProt P21731)
T3 sequence (P21731 whole entry): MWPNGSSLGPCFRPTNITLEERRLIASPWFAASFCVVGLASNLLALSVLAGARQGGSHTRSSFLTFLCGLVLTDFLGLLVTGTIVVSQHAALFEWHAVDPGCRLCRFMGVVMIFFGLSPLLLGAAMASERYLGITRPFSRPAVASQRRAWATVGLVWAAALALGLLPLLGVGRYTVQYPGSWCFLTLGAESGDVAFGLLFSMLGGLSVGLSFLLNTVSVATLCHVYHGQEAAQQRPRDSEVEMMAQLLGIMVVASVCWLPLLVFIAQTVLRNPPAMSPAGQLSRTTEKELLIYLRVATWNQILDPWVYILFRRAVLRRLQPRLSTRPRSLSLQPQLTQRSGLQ

[6] = biological target: T1, Alpha-1A adrenergic receptor; assay type: functional, cell-based; remark: listed apart in the source
[7] = biological target: Histamine H3 receptor (Homo sapiens, UniProt Q9Y5N1)
[8] = biological target: Voltage-dependent L-type calcium channel subunit alpha-1C (Rattus norvegicus, UniProt P22002); assay type: functional
[9] = biological target: T1, Alpha-1A adrenergic receptor; assay type: functional, cell-based; remark: listed apart in the source
[10] = biological target: T4, Muscarinic acetylcholine receptor M2 (Homo sapiens, UniProt P08172)
T4 sequence (P08172 whole entry): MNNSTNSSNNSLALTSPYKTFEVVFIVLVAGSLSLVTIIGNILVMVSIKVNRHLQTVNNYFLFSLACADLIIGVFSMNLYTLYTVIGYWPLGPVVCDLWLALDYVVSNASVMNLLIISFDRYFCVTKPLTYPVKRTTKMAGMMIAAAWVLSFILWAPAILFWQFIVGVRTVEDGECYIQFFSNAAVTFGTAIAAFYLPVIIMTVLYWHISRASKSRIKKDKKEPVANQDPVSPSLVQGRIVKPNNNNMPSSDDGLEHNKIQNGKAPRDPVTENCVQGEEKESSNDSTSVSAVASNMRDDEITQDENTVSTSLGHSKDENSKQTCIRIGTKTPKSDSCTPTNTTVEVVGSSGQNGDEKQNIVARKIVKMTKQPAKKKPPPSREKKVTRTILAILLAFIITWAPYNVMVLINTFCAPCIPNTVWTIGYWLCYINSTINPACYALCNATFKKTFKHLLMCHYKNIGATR

[11] = biological target: Prothrombin (Homo sapiens, UniProt P00734); assay type: functional
[12] = biological target: Prostaglandin G/H synthase 1 (Homo sapiens, UniProt P23219); assay type: functional
[13] = biological target: T3, Thromboxane A2 receptor; assay type: functional, cell-based
[14] = biological target: T3, Thromboxane A2 receptor; assay type: functional, cell-based; remark: listed apart in the source
Also: assay procedure not described here.

Sequence of Histamine H3 receptor (Q9Y5N1 whole entry): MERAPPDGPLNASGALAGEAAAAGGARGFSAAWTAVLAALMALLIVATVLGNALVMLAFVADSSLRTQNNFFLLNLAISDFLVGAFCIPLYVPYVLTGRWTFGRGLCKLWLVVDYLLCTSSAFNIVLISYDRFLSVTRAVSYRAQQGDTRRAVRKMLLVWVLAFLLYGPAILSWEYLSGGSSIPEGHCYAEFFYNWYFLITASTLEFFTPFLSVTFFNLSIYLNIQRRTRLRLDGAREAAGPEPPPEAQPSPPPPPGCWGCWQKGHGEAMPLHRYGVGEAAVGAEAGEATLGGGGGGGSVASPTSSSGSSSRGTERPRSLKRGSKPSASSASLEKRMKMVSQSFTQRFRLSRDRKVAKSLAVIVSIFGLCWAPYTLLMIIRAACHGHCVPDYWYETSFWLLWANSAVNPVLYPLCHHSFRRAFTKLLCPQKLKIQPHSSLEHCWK
Sequence of Prostaglandin G/H synthase 1 (P23219 whole entry): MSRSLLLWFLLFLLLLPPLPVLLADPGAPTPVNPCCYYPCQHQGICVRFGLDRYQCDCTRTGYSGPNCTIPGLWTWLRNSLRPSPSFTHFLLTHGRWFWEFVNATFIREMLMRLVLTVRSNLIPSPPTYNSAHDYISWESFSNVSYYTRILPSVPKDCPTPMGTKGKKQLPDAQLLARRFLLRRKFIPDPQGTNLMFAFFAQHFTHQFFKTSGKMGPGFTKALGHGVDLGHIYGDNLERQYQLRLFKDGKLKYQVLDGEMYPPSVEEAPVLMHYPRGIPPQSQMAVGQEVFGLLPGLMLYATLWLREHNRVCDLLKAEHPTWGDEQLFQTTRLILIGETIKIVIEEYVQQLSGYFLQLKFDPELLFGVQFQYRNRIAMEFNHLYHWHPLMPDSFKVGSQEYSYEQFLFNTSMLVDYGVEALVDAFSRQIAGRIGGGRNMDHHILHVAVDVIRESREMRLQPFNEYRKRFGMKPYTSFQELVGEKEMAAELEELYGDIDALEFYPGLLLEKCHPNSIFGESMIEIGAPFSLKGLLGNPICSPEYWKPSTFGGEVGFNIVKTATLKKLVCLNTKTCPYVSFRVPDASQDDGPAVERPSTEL
Sequence of Muscarinic acetylcholine receptor M3 (P20309 whole entry): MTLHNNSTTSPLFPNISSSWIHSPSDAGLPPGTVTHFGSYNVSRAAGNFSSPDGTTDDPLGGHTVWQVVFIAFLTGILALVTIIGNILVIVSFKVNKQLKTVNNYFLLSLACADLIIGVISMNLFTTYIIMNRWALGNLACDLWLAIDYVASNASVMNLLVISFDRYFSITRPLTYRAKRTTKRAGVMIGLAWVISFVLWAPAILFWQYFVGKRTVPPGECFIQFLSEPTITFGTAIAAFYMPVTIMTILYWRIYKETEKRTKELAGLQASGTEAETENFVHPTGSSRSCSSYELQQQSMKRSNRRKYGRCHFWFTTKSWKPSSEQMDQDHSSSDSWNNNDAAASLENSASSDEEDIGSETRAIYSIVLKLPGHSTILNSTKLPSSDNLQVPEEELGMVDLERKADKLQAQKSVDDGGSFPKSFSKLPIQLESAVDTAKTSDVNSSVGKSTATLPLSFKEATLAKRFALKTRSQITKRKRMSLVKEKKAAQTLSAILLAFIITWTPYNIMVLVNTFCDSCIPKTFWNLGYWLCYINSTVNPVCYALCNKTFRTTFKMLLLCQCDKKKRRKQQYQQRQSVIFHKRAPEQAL
Sequence of Histamine H2 receptor (P25021 whole entry): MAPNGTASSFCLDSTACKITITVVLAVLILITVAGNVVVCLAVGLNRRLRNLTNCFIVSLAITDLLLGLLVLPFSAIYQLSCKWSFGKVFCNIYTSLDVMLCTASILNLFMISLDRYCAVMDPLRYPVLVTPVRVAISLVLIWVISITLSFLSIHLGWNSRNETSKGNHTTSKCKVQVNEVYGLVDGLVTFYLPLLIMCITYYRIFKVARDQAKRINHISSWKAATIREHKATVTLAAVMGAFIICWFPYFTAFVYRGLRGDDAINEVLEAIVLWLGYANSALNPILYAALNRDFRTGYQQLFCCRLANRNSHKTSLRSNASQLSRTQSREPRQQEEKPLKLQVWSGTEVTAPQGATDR
Sequence of Voltage-dependent L-type calcium channel subunit alpha-1C (P22002 whole entry): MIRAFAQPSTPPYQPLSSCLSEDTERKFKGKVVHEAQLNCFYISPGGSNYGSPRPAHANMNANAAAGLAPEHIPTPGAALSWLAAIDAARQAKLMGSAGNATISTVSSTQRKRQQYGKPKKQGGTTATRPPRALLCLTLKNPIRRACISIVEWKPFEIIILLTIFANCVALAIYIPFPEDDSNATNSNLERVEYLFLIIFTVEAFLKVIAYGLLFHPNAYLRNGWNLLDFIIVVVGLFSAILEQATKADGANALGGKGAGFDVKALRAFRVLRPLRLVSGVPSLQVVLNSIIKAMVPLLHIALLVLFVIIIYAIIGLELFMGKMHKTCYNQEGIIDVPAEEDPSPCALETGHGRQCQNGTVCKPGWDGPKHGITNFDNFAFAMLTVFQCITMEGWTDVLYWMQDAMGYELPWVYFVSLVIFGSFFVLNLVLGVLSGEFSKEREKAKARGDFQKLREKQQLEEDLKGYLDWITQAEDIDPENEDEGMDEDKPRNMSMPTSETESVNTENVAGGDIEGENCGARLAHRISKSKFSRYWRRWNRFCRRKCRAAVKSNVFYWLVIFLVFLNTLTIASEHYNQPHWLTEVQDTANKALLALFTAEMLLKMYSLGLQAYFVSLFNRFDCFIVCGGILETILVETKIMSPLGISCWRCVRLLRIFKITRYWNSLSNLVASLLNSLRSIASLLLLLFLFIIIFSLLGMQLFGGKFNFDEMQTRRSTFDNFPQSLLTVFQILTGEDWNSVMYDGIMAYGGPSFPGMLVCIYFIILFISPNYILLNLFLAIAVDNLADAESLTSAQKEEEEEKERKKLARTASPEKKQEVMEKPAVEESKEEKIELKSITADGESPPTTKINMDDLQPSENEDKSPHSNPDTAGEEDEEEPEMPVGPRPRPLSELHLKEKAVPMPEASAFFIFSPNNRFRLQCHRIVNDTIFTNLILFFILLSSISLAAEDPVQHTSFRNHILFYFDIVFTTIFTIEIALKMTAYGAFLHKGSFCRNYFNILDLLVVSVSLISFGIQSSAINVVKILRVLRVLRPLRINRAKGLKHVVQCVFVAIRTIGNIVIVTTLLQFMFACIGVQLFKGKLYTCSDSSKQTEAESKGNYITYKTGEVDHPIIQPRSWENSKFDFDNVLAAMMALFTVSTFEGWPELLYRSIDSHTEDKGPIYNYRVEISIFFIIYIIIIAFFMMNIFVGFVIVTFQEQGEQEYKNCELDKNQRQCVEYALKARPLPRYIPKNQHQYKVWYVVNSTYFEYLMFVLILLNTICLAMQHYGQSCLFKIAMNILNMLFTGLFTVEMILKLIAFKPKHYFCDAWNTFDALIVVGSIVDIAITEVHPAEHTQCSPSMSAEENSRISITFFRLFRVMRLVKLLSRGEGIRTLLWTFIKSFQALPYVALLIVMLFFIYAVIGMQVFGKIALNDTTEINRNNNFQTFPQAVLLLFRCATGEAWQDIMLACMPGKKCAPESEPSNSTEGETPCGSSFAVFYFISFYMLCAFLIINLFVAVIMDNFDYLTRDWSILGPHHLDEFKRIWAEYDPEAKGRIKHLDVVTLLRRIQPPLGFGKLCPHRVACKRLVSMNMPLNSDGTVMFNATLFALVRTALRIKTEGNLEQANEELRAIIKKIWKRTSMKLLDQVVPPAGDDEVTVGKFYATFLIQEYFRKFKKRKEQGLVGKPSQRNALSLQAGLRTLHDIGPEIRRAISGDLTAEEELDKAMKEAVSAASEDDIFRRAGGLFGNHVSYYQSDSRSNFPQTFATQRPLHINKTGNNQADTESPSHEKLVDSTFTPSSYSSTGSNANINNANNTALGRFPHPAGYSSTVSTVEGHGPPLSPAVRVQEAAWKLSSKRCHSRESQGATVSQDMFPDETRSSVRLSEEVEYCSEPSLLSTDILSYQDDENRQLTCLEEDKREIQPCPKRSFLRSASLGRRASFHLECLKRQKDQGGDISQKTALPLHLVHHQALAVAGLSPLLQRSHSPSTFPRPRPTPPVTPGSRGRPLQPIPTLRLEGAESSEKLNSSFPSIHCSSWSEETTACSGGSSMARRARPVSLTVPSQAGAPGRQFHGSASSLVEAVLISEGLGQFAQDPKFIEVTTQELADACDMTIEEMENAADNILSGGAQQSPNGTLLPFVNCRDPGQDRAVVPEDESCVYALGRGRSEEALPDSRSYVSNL

Structure (SMILES) | AC50 [1] [µM] | AC50 [2] [µM] | AC50 [3] [µM] | AC50 [4] [µM] | AC50 [5] [µM] | AC50 [6] [µM] | AC50 [7] [µM] | AC50 [8] [µM] | AC50 [9] [µM] | AC50 [10] [µM] | AC50 [11] [µM] | AC50 [12] [µM] | AC50 [13] [µM] | AC50 [14] [µM]
Cc1nc([N+](=O)[O-])cn1-c1ccc([N+](=O)[O-])cc1 [NITREFAZOLE] | > 30 | > 30 | > 30 | > 30 | > 30 | > 30 | > 30 | – | – | – | – | – | – | –
Cn1nnc2c(C(N)=O)ncn2c1=O [TEMOZOLOMIDE] | > 30 | > 30 | > 30 | > 10 | > 30 | > 30 | > 30 | > 10 | – | – | – | – | – | –
Cc1c(C(=O)NN2CCCCC2)nn(-c2ccc(Cl)cc2Cl)c1-c1ccc(Cl)cc1 [RIMONABANT] | > 30 | 29.6 | > 30 | > 10 | 18.6 | 11 | > 30 | 3.19 | – | – | – | – | – | –
O=C(O[C@H]1C[C@H]2CC[C@@H](C1)[N+]21CCCC1)C(O)(c1ccccc1)c1ccccc1 [TROSPIUM] | > 30 | > 30 | 0.0089 | > 30 | > 30 | > 30 | > 30 | > 30 | – | – | – | – | – | –
Nc1nc(NC2CC2)c2ncn([C@H]3C=C[C@@H](CO)C3)c2n1 [ABACAVIR] | > 30 | > 30 | > 30 | > 30 | > 30 | > 30 | > 30 | – | – | – | – | – | – | –
NCC(CC(=O)O)c1ccc(Cl)cc1 (stereo not given) [BACLOFEN] | > 30 | > 30 | – | > 10 | > 30 | > 30 | > 30 | > 10 | > 30 | > 30 | > 30 | > 30 | > 30 | > 30
Cc1cn([C@H]2C=C[C@@H](CO)O2)c(=O)[nH]c1=O [STAVUDINE] | > 30 | > 30 | – | > 10 | > 30 | > 30 | > 30 | > 10 | > 30 | > 30 | > 30 | > 30 | > 30 | > 30
CC1=C(C(=O)O)N2C(=O)[C@@H](NC(=O)[C@H](N)c3ccccc3)[C@H]2SC1 [CEPHALEXIN ANHYDROUS] | > 30 | > 30 | – | > 30 | > 30 | > 30 | > 10 | > 10 | – | – | – | – | – | –
CN1C(C(=O)Nc2ccccn2)=C(O)c2sc(Cl)cc2S1(=O)=O [LORNOXICAM] | > 30 | > 30 | > 30 | > 10 | > 30 | > 30 | > 10 | > 10 | – | – | – | – | – | –
CC(=O)NCCCS(=O)(=O)O [ACAMPROSATE] | > 30 | > 30 | > 30 | > 30 | > 30 | > 30 | > 30 | – | – | – | – | – | – | –
COc1ccccc1OCC(O)CN1CCN(CC(=O)Nc2c(C)cccc2C)CC1 (stereo not given) [RANOLAZINE] | > 30 | > 30 | > 30 | > 30 | > 30 | 1.7 | > 30 | > 30 | – | – | – | – | – | –
CN(C)CCC(c1ccc(Cl)cc1)c1ccccn1 (stereo not given) [CHLORPHENIRAMINE] | > 30 | > 30 | – | > 10 | > 30 | > 30 | 11 | > 10 | – | – | – | – | – | –
CO[C@H]1C[C@@H]2CC[C@@H](C)[C@@](O)(O2)C(=O)C(=O)N2CCCC[C@H]2C(=O)O[C@H]([C@H](C)C[C@@H]2CC[C@@H](O)[C@H](OC)C2)CC(=O)[C@H](C)/C=C(\C)[C@@H](O)[C@@H](OC)C(=O)[C@H](C)C[C@H](C)/C=C/C=C/C=C/1C [SIROLIMUS] | > 30 | > 30 | – | > 10 | > 30 | > 30 | > 10 | > 10 | > 30 | > 30 | > 30 | 23.3 | > 30 | > 30
CCC(C)n1ncn(-c2ccc(N3CCN(c4ccc(OCC5COC(Cn6cncn6)(c6ccc(Cl)cc6Cl)O5)cc4)CC3)cc2)c1=O (stereo not given) [ITRACONAZOLE] | > 30 | > 30 | – | > 10 | > 30 | > 30 | > 30 | > 30 | – | – | – | – | – | –
CS(=O)(=O)c1ccc(C2=C(c3ccccc3)C(=O)OC2)cc1 [ROFECOXIB] | > 30 | > 30 | – | > 30 | > 30 | > 30 | > 10 | > 10 | > 30 | > 30 | > 30 | – | > 30 | > 30
CCCCN1C[C@H](O)[C@@H](O)[C@H](O)[C@H]1CO | > 30 | > 30 | > 30 | > 30 | > 30 | > 30 | > 30 | > 30 | – | – | – | – | – | –
CC(C)C[C@H]1C(=O)N2CCC[C@H]2[C@]2(O)O[C@](NC(=O)[C@@H]3C=C4c5cccc6[nH]c(Br)c(c56)C[C@H]4N(C)C3)(C(C)C)C(=O)N12 [BROMOCRIPTINE] | 0.844 | > 30 | – | 2.13 | > 30 | – | > 30 | > 10 | 1.07 | 29.1 | > 30 | 4.61 | 18.8 | > 3
CCOC(=O)[C@H](CCc1ccccc1)N[C@@H](C)C(=O)N1[C@H](C(=O)O)C[C@@H]2CCC[C@@H]21 | > 30 | > 30 | – | > 10 | > 30 | > 30 | > 10 | > 10 | – | – | – | – | – | –
O=C1Nc2ccc(Cl)cc2[C@@](C#CC2CC2)(C(F)(F)F)O1 [EFAVIRENZ] | > 30 | 45 | > 30 | > 10 | > 30 | > 30 | > 30 | 18.8 | – | – | – | – | – | –
C[C@]12CCC(=O)C=C1CC[C@@H]1[C@@H]2[C@@H](O)C[C@@]2(C)[C@H]1CC[C@]2(O)C(=O)CO [HYDROCORTISONE] | > 30 | > 30 | – | > 10 | > 30 | > 30 | > 10 | > 10 | – | – | – | – | – | –
